This is an account of results in US12410152B2, “Oxazole and thioazole-type cullin ring ubiquitin ligase compounds and uses thereof” (Proxygen GmbH, priority 2019, dated 2025).

The target of the assay is T1, CDK12:CCNK and DDB1:CUL4B (Homo sapiens, UniProt Q16531+Q9NYV4).
T1 construct: expressed in transfected cells; host or cells: 293T (HEK) cells, transient transfection
As to the kind of experiment: Biotin proximity labeling with miniTurbo in live cells. Type of assay: cell-based. Conditions: HEK/293T cells with DDB1- or CDK12-mTurbo fusions, carfilzomib 10 μM. How it is done:
The direct, drug-induced association of CDK12:CCNK and DDB1:CUL4B was further assessed in a cellular assay based on enzyme-catalyzed proximity labeling via the efficient biotin ligase miniTurbo (mTurbo) (Branon, T. C. et al. Efficient proximity labeling in living cells and organisms with TurboID. Nat Biotechnol 36, 880-887, doi:10.1038/nbt.4201 (2018)) was performed. This assay enables recording dynamic changes in molecular proximity of an mTurbo-tagged bait protein by streptavidin purification of covalently biotinylated, proximal proteins. For this purpose, c-terminally tagged DDB1, or CDK12 mTurbo-fusions were transiently expressed in HEK cells. Cells were treated for one hour with C020772.1 or vehicle (DMSO) control, including a 30 minute biotin labeling pulse (FIG. 20 g, h). […] Vice-versa, DDB1 was only identified as CDK12 interactor after drug treatment, but was not purified after vehicle-control treatment (FIG. 20 h). […]
One 10-cm culture plate of 293T cells (70%-80% confluent) was transfected with 2 μg of pLenti_DDB1_miniTurbo_V5 or pLenti_CDK12_miniTurbo_V5 using Lipofectamine 2000 (Invitrogen, 11668019). […] Eluates were analyzed by WB. Quantification was performed with ImageJ.

T1 sequence (Q9NYV4 whole entry): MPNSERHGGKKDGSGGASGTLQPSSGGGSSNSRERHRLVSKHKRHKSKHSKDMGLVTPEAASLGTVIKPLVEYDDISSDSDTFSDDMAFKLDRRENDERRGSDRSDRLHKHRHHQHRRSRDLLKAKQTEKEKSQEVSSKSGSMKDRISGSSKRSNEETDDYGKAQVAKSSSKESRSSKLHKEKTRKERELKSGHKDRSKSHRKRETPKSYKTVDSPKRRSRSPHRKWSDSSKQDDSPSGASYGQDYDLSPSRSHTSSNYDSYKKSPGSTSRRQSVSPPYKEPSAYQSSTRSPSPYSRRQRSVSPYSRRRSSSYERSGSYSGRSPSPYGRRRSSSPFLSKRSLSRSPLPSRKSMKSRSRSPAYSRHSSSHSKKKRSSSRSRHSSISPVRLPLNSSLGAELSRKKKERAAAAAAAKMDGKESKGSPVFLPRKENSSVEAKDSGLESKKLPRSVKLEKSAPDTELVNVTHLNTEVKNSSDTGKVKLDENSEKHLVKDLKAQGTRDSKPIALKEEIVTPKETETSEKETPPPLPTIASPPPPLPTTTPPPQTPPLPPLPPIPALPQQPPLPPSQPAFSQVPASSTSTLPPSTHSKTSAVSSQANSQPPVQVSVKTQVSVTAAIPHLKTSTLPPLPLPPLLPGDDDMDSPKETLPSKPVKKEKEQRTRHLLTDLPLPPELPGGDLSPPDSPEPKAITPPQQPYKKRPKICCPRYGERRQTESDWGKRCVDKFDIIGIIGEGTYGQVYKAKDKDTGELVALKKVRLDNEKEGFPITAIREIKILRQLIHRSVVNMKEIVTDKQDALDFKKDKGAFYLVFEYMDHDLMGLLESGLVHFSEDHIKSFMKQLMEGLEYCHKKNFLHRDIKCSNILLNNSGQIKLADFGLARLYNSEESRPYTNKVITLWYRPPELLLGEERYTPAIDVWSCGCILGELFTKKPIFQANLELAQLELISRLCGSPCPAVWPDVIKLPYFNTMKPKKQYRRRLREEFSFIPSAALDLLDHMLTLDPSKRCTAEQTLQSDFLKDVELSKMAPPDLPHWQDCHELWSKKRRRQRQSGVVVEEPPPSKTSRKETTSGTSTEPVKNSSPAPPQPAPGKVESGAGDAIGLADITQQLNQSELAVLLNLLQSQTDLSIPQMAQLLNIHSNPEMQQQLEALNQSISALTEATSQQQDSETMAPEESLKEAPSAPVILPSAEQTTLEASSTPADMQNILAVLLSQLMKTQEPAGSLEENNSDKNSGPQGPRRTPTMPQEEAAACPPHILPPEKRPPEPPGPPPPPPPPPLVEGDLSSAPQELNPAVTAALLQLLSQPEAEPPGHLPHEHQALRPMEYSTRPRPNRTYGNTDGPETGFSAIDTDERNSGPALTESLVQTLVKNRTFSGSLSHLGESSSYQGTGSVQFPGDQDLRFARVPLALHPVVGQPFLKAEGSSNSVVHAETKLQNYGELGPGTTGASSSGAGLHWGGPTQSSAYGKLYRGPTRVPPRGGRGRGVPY
T1 sequence (O75909 whole entry partner): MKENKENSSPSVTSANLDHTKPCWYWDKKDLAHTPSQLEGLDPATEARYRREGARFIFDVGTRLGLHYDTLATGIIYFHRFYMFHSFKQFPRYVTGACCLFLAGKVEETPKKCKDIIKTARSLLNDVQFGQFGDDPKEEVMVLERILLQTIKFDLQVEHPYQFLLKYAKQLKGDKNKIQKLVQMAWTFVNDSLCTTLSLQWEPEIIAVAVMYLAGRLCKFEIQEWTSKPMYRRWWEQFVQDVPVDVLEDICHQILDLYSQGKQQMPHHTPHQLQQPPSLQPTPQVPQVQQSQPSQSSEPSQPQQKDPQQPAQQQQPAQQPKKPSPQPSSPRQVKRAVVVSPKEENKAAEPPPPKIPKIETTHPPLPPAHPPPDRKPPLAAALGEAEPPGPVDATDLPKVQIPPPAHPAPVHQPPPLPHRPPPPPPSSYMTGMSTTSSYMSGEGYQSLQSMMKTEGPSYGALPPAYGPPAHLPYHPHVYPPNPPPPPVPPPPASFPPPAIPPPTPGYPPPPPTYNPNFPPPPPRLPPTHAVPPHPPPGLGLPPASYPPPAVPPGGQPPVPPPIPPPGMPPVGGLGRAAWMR
T1 sequence (Q16531 whole entry): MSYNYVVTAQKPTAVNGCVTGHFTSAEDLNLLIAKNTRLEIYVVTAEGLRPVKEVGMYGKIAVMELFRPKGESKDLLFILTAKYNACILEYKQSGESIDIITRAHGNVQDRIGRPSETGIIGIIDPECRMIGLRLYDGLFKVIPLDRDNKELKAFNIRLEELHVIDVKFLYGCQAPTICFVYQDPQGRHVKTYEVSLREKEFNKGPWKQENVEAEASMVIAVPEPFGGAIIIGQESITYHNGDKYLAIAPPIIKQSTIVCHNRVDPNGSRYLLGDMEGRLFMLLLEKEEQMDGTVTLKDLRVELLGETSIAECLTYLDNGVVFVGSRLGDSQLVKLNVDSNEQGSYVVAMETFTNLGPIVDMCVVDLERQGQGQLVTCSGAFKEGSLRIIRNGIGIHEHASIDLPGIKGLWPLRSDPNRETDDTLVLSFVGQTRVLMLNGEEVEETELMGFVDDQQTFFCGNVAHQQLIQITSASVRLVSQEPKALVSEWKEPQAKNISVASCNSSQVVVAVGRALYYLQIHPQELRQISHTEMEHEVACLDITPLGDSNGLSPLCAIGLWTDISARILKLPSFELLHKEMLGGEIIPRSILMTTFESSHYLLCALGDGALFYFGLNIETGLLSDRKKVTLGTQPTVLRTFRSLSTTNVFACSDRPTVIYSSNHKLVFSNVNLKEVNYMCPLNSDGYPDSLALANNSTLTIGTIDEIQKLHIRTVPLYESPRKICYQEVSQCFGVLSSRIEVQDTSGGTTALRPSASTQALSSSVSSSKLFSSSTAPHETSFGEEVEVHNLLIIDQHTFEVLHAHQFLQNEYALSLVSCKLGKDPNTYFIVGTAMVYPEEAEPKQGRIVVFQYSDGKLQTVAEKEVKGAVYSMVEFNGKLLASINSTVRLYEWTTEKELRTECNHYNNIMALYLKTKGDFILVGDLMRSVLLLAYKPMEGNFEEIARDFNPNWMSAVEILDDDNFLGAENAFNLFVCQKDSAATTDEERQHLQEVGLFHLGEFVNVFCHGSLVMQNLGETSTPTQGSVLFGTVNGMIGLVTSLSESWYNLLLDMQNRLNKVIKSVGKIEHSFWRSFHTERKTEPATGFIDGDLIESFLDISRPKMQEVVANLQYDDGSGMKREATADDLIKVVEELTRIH

As for `O=C(CSc1nnc2c(n1)[nH]c1ccccc12)Nc1ccc(Cl)cn1` [IC020772.1], the “drug-induced CDK12-DDB1 proximity (biotin labeling)” value is given as “CDK12 interactions with DDB1 were exclusively identified in the presence of IC020772.1”.
